Results taken from ChEMBL document CHEMBL3414446, “Neoechinulin B and its analogues as potential entry inhibitors of influenza viruses, targeting viral hemagglutinin” (Eur J Med Chem, 2015).
pIC50, pKd: −log10 of the molar value. Activity calls are given as the source filed them. The calls are words filed in the database; no cut-off is given here.

What was measured:
[1] = Cytotoxicity against MDCK cells assessed as cell growth after 40 hrs by CellTiter-Glo assay; assay type: cell-based, Canis lupus familiaris; conditions: dog
[2] = Antiviral activity against influenza A virus A/WSN/33 (H1N1) infected in MDCK cells assessed as reduction in cytopathic effect at 100 uM after 48 hrs by plaque assay; assay type: functional, Influenza A virus (A/WSN/1933(H1N1))
[3] = biological target: Hemagglutinin (Influenza A virus) (UniProt B4URE7); test: Inhibition of influenza A virus A/WSN/33 (H1N1) Hemagglutinin 1 binding to sialic acid receptor assessed as response unit at 2.5 ug/ml by surface plasmon resonance assay; conditions: Influenza A virus (A/WSN/1933(H1N1))
[4] = biological target: Hemagglutinin (Influenza A virus) (UniProt B4URE7); test: Inhibition of influenza A virus A/WSN/33 (H1N1) Hemagglutinin 1 binding to sialic acid receptor assessed as response unit at 5 ug/ml by surface plasmon resonance assay; conditions: Influenza A virus (A/WSN/1933(H1N1))
Hemagglutinin = Hemagglutinin (Influenza A virus, UniProt B4URE7); test: Binding affinity to influenza A virus A/WSN/33 (H1N1) Hemagglutinin by surface Plasmon resonance assay; set-up: species or system Influenza A virus (A/WSN/1933(H1N1))
[5] = biological target: Hemagglutinin (Influenza A virus) (UniProt B4URE7); test: Inhibition of influenza A virus A/WSN/33 (H1N1) Hemagglutinin 1 binding to sialic acid receptor assessed as response unit at 1.25 ug/ml by surface plasmon resonance assay; conditions: Influenza A virus (A/WSN/1933(H1N1))
[6] = biological target: Hemagglutinin (Influenza A virus) (UniProt B4URE7); test: Inhibition of influenza A virus A/WSN/33 (H1N1) Hemagglutinin 1 binding to sialic acid receptor assessed as response unit at 0.625 ug/ml by surface plasmon resonance assay; conditions: Influenza A virus (A/WSN/1933(H1N1))
[7] = tested on: Influenza A virus (A/WSN/1933(H1N1)); test: Inhibition of influenza A virus A/WSN/33 (H1N1) Hemagglutinin 1 binding to sialic acid receptor assessed as response unit at 20 ug/ml by surface plasmon resonance assay
[8] = Binding affinity to influenza A virus A/WSN/33 (H1N1) Hemagglutinin 1 binding to sialic acid receptor by surface plasmon resonance assay; set-up: species or system Influenza A virus (A/WSN/1933(H1N1))
[9] = tested on: Influenza A virus (A/WSN/1933(H1N1)); test: Inhibition of influenza A virus A/WSN/33 (H1N1) Hemagglutinin 1 binding to sialic acid receptor assessed as response unit at 10 ug/ml by surface plasmon resonance assay
[10] = Antiviral activity against influenza A virus A/WSN/33 (H1N1) infected in MDCK cells assessed as reduction in cytopathic effect after 48 hrs by plaque assay; assay type: functional, cell-based, Influenza A virus (A/WSN/1933(H1N1))
[11] = (§1) Antiviral activity against influenza A virus A/WSN/33 (H1N1) infected in MDCK cells assessed as inhibition of plaque formation after 3 days at 37 degC; assay type: functional, cell-based, Influenza A virus (A/WSN/1933(H1N1)); conditions: 72 h
MDCK [12] = test: as §1; assay type: functional, cell-based; conditions: Influenza A virus (A/WSN/1933(H1N1))
[13] = tested on: Influenza A virus (A/WSN/1933(H1N1)); test: Inhibition of influenza A virus A/WSN/33 (H1N1)-induced aggregation of chicken erythrocytes after 30 mins by Hemagglutination inhibition assay; assay type: functional
MDCK [14] = test: Antiviral activity against influenza A virus A/WSN/33 (H1N1) infected in MDCK cells assessed as inhibition of plaque formation for 1 hr at 4 degC; assay type: functional, cell-based; conditions: Influenza A virus (A/WSN/1933(H1N1))
[15] = biological target: Hemagglutinin (Influenza A virus) (UniProt B4URE7); test: Inhibition of influenza A virus A/WSN/33 (H1N1) Hemagglutinin transfected in Human HeLa cells assessed as polykaryon formation at 100 uM after 15 mins by microscopy; assay type: cell-based; conditions: Influenza A virus (A/WSN/1933(H1N1))
MDCK [16] = test: Antiviral activity against influenza A virus A/WSN/33 (H1N1) infected in MDCK cells assessed as nucleoprotein level in infected cells at 0 to 2 hrs virus entry step at 100 uM by Time-of-addition experiment; assay type: functional, cell-based; conditions: Influenza A virus (A/WSN/1933(H1N1))
[17] = tested on: Influenza A virus (A/WSN/1933(H1N1)); test: Inhibition of influenza A virus A/WSN/33 (H1N1) […] binding to sialic acid receptor by surface Plasmon resonance assay
MDCK [18] = test: Antiviral activity against influenza A virus A/WSN/33 (H1N1) infected in MDCK cells assessed as nucleoprotein level in infected cells at 2 to 8 hrs viral genome replication and translation step at 100 uM by Time-of-addition experiment; assay type: functional, cell-based; conditions: Influenza A virus (A/WSN/1933(H1N1))
MDCK [19] = test: Antiviral activity against influenza A virus A/WSN/33 (H1N1) infected in MDCK cells assessed as nucleoprotein level in infected cells at […] progeny virion release step at 100 uM by Time-of-addition experiment; assay type: functional, cell-based; conditions: Influenza A virus (A/WSN/1933(H1N1))

SMILES: C=CC(C)(C)c1[nH]c2ccccc2c1/C=C1\NC(=O)[C@@](CO)(OC)NC1=O
- CC50 at 40 h [1]: > 200 µM
- inhibition at 100 µM [2]: 14.3%

SMILES: C=CC(C)(C)c1[nH]c2ccccc2c1/C=C1\NC(=O)[C@H](C)NC1=O [NEOECHINULIN A]
- Activity [3]: 12.3
- Activity [4]: 26.5
- pKd (Hemagglutinin): 4.01
- Activity [5]: 4.5
- Activity [6]: 1

SMILES: CCOC(=O)c1c(CSc2ccccc2)n(C)c2cc(Br)c(O)c(CN(C)C)c12 [UMIFENOVIR]
- Activity [7]: 102
- Activity [3]: 7.5
- pKd [8]: 7.09
- Activity [9]: 48.7
- Activity [4]: 20.7
- Activity [5]: 1.2
- Activity [6]: -1.8

SMILES: C=CC(C)(C)c1[nH]c2c(C[C@H](O)C(C)(C)OC)cccc2c1/C=C1\NC(=O)[C@H](C)NC1=O
- CC50 at 40 h [1]: > 200 µM
- inhibition at 100 µM [2]: 15.6%

SMILES: C[C@@H]1NC(=O)[C@H](Cc2c[nH]c3ccccc23)NC1=O
- CC50 at 40 h [1]: > 200 µM
- inhibition at 100 µM [2]: 2.31%

SMILES: C=CC(C)(C)c1[nH]c2ccc(CC=C(C)C)cc2c1/C=C1\NC(=O)[C@H](C)NC1=O [ISOECHINULIN A]
- pIC50 [10]: 4.37
- CC50 at 40 h [1]: > 200 µM
- inhibition at 100 µM [2]: 77.6%

SMILES: CCOC(=O)C1=C[C@@H](OC(CC)CC)[C@H](NC(C)=O)[C@@H](N)C1 [OSELTAMIVIR]
- pIC50 [11]: 4.82
- pIC50 [10]: 4.33
- CC50 at 40 h [1]: > 200 µM

SMILES: C=CC(C)(C)c1[nH]c2ccc(C[C@H](OC(C)=O)C(C)(C)O)cc2c1C[C@@H]1NC(=O)[C@H](C)NC1=O
- CC50 at 40 h [1]: > 200 µM
- inhibition at 100 µM [2]: 3.48%

SMILES: NC12CC3CC(CC(C3)C1)C2 [AMANTADINE]
- CC50 at 40 h [1]: > 200 µM

SMILES: C=CC(C)(C)c1[nH]c2ccc(C[C@H](OC(C)=O)C(C)(C)O)cc2c1/C=C1\NC(=O)[C@H](C)NC1=O
- CC50 at 40 h [1]: > 200 µM
- inhibition at 100 µM [2]: 2.5%

SMILES: C=CC(C)(C)c1[nH]c2ccc(C[C@H](O)C(C)(C)OC)cc2c1C[C@@H]1NC(=O)[C@H](C)NC1=O
- CC50 at 40 h [1]: > 200 µM
- inhibition at 100 µM [2]: 5.69%

SMILES: C=CC(C)(C)c1[nH]c2c(CC=C(C)C)cccc2c1/C=c1\[nH]c(=O)c(=C)[nH]c1=O
- pIC50 [10]: 4.29
- CC50 at 40 h [1]: > 200 µM
- inhibition at 100 µM [2]: 100%

SMILES: C=CC(C)(C)c1[nH]c2ccccc2c1C[C@@H]1NC(=O)[C@H](CO)NC1=O
- CC50 at 40 h [1]: > 200 µM
- inhibition at 100 µM [2]: 13%

SMILES: C=CC(C)(C)c1[nH]c2ccccc2c1C(OC)[C@@H]1NC(=O)[C@H](C)NC1=O (stereo not given in full)
- CC50 at 40 h [1]: > 200 µM
- inhibition at 100 µM [2]: 18.3%

SMILES: COc1cc(/C=C/C(=O)CC(=O)/C=C/c2ccc(O)c(OC)c2)ccc1O [CURCUMIN]
- Activity [7]: 78.8
- Activity [3]: 6.8
- pKd [8]: 3.29
- Activity [9]: 36.4
- Activity [4]: 16.1
- Activity [5]: 2.7
- Activity [6]: 0.8

SMILES: NC(=O)c1ncn([C@@H]2O[C@H](CO)[C@@H](O)[C@H]2O)n1 [RIBAVIRIN]
- CC50 at 40 h [1]: > 200 µM

SMILES: C=CC(C)(C)c1[nH]c2ccccc2c1/C=C1\NC(=O)[C@@](C)(OC)NC1=O
- pIC50 [10]: 4.16
- CC50 at 40 h [1]: > 200 µM
- inhibition at 100 µM [2]: 82.4%

SMILES: C=CC(C)(C)c1[nH]c2ccccc2c1C(O)[C@@H]1NC(=O)[C@H](C)NC1=O (stereo not given in full)
- CC50 at 40 h [1]: > 200 µM
- inhibition at 100 µM [2]: 3.38%

SMILES: C=CC(C)(C)c1[nH]c2ccc(C[C@H](O)C(C)(C)OC)cc2c1/C=c1\[nH]c(=O)c(=C)[nH]c1=O
- CC50 at 40 h [1]: > 200 µM
- inhibition at 100 µM [2]: 5%

SMILES: C=CC(C)(C)n1cc(C[C@@H]2NC(=O)[C@H](C)NC2=O)c2ccccc21
- CC50 at 40 h [1]: > 200 µM
- inhibition at 100 µM [2]: 17.9%

SMILES: C=CC(C)(C)c1[nH]c2c(C[C@H](O)C(C)(C)O)cccc2c1/C=C1\NC(=O)[C@H](C)NC1=O
- CC50 at 40 h [1]: > 200 µM
- inhibition at 100 µM [2]: 15.1%

SMILES: C=CC(C)(C)c1[nH]c2ccccc2c1/C=C1\NC(=O)C(=O)NC1=O
- CC50 at 40 h [1]: > 200 µM
- inhibition at 100 µM [2]: 6.69%

SMILES: C=CC(C)(C)c1[nH]c2ccccc2c1/C=c1\[nH]c(=O)c(=C)[nH]c1=O [NEOECHINULIN B]
- Activity [7]: 66.9
- Activity [3]: 0.8
- inhibition (MDCK [12]): Dose-dependent effect
- pKd [8]: 3.35
- pIC50 [10]: 4.56
- inhibition [13]: Dose-dependent effect
- inhibition (MDCK [14]): Dose-dependent effect
- Activity [9]: 27.7
- Activity [4]: 8.9
- CC50 at 40 h [1]: > 200 µM
- inhibition at 100 µM [2]: 70.5%
- Activity [15]: inactive
- pKd (Hemagglutinin): 4.49
- Activity (MDCK [16]): Active
- Activity [5]: -4
- Activity [6]: -3.9
- Activity [17]: Active
- inhibition (MDCK [18]): inactive
- inhibition (MDCK [19]): inactive

SMILES: C=CC(C)(C)c1[nH]c2ccc(C[C@H](O)C(C)(C)OC)cc2c1/C=C1\NC(=O)[C@H](C)NC1=O
- CC50 at 40 h [1]: > 200 µM
- inhibition at 100 µM [2]: 15.2%

SMILES: C=CC(C)(C)c1[nH]c2c(CC=C(C)C)cc(CC=C(C)C)cc2c1C[C@@H]1NC(=O)[C@H](C)NC1=O [ECHINULIN]
- CC50 at 40 h [1]: > 200 µM
- inhibition at 100 µM [2]: 13%

SMILES: CC(C)=CCn1cc(C[C@@H]2NC(=O)[C@H](C)NC2=O)c2ccccc21
- CC50 at 40 h [1]: > 200 µM
- inhibition at 100 µM [2]: 25.4%

SMILES: C=CC(C)(C)c1[nH]c2ccc(C[C@H](O)C(C)(C)O)cc2c1/C=C1\NC(=O)C(=O)NC1=O
- CC50 at 40 h [1]: > 200 µM
- inhibition at 100 µM [2]: 6.45%

SMILES: C=CC(C)(C)c1[nH]c2ccccc2c1/C=C1\NC(=O)[C@H](CO)NC1=O [CRISTATUMIN A]
- CC50 at 40 h [1]: > 200 µM
- inhibition at 100 µM [2]: 20.6%

SMILES: C=CC(C)(C)c1[nH]c2ccccc2c1C[C@@H]1NC(=O)[C@H](C)NC1=O [PREECHINULIN]
- CC50 at 40 h [1]: > 200 µM
- inhibition at 100 µM [2]: 14.9%
